Assay results taken from patent US9573911B2, “Diphosphate mimetics and uses thereof” (President and Fellows of Harvard College, priority 2011, dated 2017).

Legend:
OGT [1] = molecular target: T1, OGT (Homo sapiens, UniProt O15294); experiment: Time-dependent inactivation of OGT with BZX compounds; format: biochemical
T1 construct: hOGT4.5 construct (spanning residues 313-1031 based on the numbering of the full length human protein); made in house
T1 sequence (O15294 313-1031 isoform O15294-3): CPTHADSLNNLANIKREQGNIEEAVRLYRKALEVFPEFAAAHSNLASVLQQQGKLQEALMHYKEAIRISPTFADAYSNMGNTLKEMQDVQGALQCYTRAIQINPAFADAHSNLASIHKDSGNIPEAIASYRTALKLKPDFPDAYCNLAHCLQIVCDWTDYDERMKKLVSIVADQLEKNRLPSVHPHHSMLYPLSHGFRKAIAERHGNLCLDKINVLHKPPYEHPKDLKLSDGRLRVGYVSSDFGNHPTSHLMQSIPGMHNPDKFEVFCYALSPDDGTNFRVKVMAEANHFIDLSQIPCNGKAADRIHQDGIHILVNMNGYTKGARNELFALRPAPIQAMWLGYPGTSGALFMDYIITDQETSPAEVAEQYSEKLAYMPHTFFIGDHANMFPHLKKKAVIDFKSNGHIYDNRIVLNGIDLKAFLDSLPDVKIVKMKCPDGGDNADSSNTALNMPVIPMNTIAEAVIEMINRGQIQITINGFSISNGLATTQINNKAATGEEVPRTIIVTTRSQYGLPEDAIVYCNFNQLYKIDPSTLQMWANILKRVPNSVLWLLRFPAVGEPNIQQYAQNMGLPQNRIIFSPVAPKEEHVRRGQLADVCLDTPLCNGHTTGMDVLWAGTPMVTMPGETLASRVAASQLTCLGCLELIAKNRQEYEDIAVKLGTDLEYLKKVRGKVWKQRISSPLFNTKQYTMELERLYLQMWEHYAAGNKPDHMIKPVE
Text: Compound (1) was identified in a high-throughput screen of 65,000 compounds (FIG. 1). See, e.g., Gross et al., J. Am. Chem. Soc. (2005) 127:14588-14589. It contains a dicarbamate moiety that links two aromatic groups. This compound features a conjugated chemical structure and both carbamate carbonyls are potentially reactive. See, e.g., Alexander et al., Chem. Biol. (2005) 12:1179-1187. […] A small panel of related compounds was made from commercially available building blocks in order to identify structural features that might improve potency. Time-dependent inactivation studies were carried out in which OGT was preincubated with a three-fold excess of each compound for 5 min, and the mixture was then diluted 100-fold into buffer containing UDP-^14C-GlcNAc and the well-characterized peptide substrate, CKII. See, e.g., Kreppel et al., J. Biol. Chem. (1999) 274:32015-32022). Enzyme activity was measured using a previously developed peptide capture assay. See, e.g., Gross et al., J. Am. Chem. Soc. (2005) 127:14588-14589.
Each BZX compound (7.5 μM) was preincubated with 5 μM OGT in reaction buffer (125 mM NaCl, 1 mM EDTA, 20 mM potassium phosphate, pH 7.4, and 500 μM tris(hydroxypropyl)phosphine (THP)) at room temperature for different amount of time, then diluted 100-fold, mixed with substrates (6 μM UDP-^14C-GlcNAc and 500 μM CKII peptide (KKKYPGGSTPVSSANMM)) and allowed to react for another 2 h. Enzyme activity was tested with the peptide capture assay as previously reported. See, e.g., Gross et al., J. Am. Chem. Soc. (2005) 127:14588-14589. The final volume of each reaction was 20 μl, and the experiments were conducted in triplicate. The activities of OGT mutants were also tested in triplicate as previously reported. See, e.g., Gross supra.

OGT [2] = molecular target: T1, OGT; experiment: Western blot of BZX inhibitor treated cell lysates (O-GlcNAcylation by added OGT); format: biochemical; settings: MCF-10A ErbB2 cell lysates; OGT 2 μM, UDP-GlcNAc 1 mM, BZX inhibitors 200 μM
Experimental: […] ErbB2 cells were maintained in DMEM/F12 (Invitrogen) supplemented with 5% horse serum (Invitrogen), 20 ng/ml EGF (Peprotech), 10 μg/ml insulin (Sigma), 100 ng/ml cholera toxin (Sigma), […] hydrocortisone (Sigma), 50 U/ml penicillin, and 50 μg/ml streptomycin (Invitrogen) to reach 70% confluence. The cells were then grown for another 9 hours in glucose starvation medium (DMEM-no glucose (Invitrogen) supplemented with 1% horse serum, 50 U/ml penicillin and 50 μg/ml streptomycin) before harvest. The cell lysates, prepared as described above, were divided into four tubes with each tube containing the same amount of protein. Nothing was added to tube I; OGT (2 μM) and DMSO (1%) were added into tube II; OGT (2 μM) and (2) (200 μM) were added to tube III; OGT (2 μM) and 1 (200 μM) were added to tube IV. The four samples were incubated at room temperature for 30 min before adding UDP-GlcNAc (1 mM) and incubated for another 2 hours. After incubation, all samples were analyzed with SDS-PAGE and a Western blot was carried out using the anti-O-GlcNAc antibody as described above.

COc1ccc(OC(=O)n2c(=O)oc3cc(C(C)=O)ccc32)cc1 [Compound 2]
inactivation time course of OGT (OGT [1]; 1.5:1 inhibitor:enzyme ratio): fully inactivated OGT | OGT inactivation in the presence of UDP-GlcNAc in the preincubation mixture (OGT [1]; OGT 5 μM, compound 20 μM, UDP-GlcNAc 40 μM, 2-20 min): UDP-GlcNAc reduced the rate of inactivation | time to full inactivation of OGT (OGT [1]; near 1:1 ratio): ≤ 5 min | inhibition of OGT activity (O-GlcNAcylation) in cell lysates (OGT [2]): more potent inhibitor of OGT activity than compound (1)
